The values that follow come from BindingDB's records for doi:10.1128/AAC.01572-08 (Mcmaster University, 2009).

The target of the assay is Bifunctional protein GlmU (Escherichia coli (strain K12), UniProt P0ACC7). Briefly: Competitive inhibition of Acetyltransferase activity of Escherichia coli BL21(DE3) GlmU in presence of AcCoA.
Chain of Bifunctional protein GlmU (P0ACC7 whole entry): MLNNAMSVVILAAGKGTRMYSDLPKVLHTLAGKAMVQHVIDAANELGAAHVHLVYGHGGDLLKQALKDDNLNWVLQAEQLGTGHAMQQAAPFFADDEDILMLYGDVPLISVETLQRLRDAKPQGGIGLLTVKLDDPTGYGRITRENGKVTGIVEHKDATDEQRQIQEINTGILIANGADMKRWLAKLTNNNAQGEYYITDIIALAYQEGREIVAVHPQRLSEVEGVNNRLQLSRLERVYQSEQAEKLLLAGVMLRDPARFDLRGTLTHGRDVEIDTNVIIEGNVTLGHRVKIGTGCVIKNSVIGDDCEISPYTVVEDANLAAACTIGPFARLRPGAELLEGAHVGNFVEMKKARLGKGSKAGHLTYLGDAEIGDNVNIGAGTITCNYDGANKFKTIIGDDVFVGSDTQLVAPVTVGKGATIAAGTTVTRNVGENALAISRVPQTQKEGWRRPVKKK
Broadly, the Ki is the dissociation constant of the complex between target and ligand, obtained from inhibition or displacement. Regarding `Nc1ccc(Nc2ccc(N)cc2S(=O)(=O)O)cc1` [5-amino-2-(4-aminophenylamino)benzenesulfonic acid], the inhibition constant Ki was determined as 17 nM. The value for `O=S(=O)(Nc1ccc(S(=O)(=O)c2ccc(-c3ccc(S(=O)(=O)c4ccc(NS(=O)(=O)c5ccc(Cl)cc5)c(Cl)c4)cc3)cc2)cc1Cl)c1ccc(Cl)cc1` [Mac0008028] was 404 nM; that for `O=C(CSc1nnc(SCC(=O)NCCSCc2ccco2)s1)NCCSCc1ccco1` [Mac0029665] was 23 nM.
